From article PMC3337405 (Cancer Chemotherapy and Pharmacology, 2012)

Key:
[1] = tested on: patients with ASM, mast cell leukemia, or systemic mastocytosis; conditions: 100 mg twice daily; 26 patients; preliminary results; cited from earlier work
healthy volunteers [2] = test: Outlier analysis of QTc and other ECG parameters, ECG morphology; format: in vivo, human; conditions: for QTcB >30 ms, time-matched change from baseline, participants: text: 30- to 60-ms category
Protocol: Outlier analysis for QTc was also exploratory because this study was not powered to detect individuals with genetic sensitivity to potential QT-prolonging drugs. The nonspecific outlier criterion was a change from baseline in QTc interval of 30–60 ms.
(§1) Standard triplicate 12-lead ECGs were obtained at 9 time points over 24 h at […] and at 2 time points on day 1. Electrocardiogram analysis was performed at a blinded central reading facility (ERT, East Bridgewater, NJ) in digital format, with paper tracings obtained and archived immediately on site. Vital signs were assessed daily. Clinical laboratory parameters were assessed at baseline and at the end of study. Self-reported adverse events were continuously recorded from the first study treatment (placebo, day −1) through the end of study on day 4.

healthy volunteers [3] = test: Adverse events and discontinuations; format: in vivo, human
Protocol: Electrocardiogram analysis was performed at a blinded central reading facility (ERT, East Bridgewater, NJ) in digital format, with paper tracings obtained and archived immediately on site. Vital signs were assessed daily. Clinical laboratory parameters were assessed at baseline and at the end of study. Self-reported adverse events were continuously recorded from the first study treatment (placebo, day −1) through the end of study on day 4.

healthy volunteers [4] = test: Thorough QT/QTc study: QTcF change from baseline on day 3 (12-lead ECG); format: in vivo, human; conditions: for QTcF change from time-matched baseline, Difference (Midostaurin – Placebo) / Upper bound of the one-sided 95% CI of Difference (Midostaurin – Placebo) in QTcF change: day 3; for QTcF change on day 3 from time-matched baseline: midostaurin arm
Description: This study was a phase I, randomized, double-blind, placebo- and active-controlled, 3-way, parallel-group study conducted at a single center in the United States and approved by the Arkansas Research Medical Testing, LLC, Institutional Review Board. The design followed the recommendations of the International Conference on Harmonisation of Technical Requirements for Registration of Pharmaceuticals for Human Use (ICH) E14 guideline on “The Clinical Evaluation of QT/QTc Interval Prolongation and Proarrhythmic Potential for Non-Antiarrhythmic Drugs” [19]. As such, the trial included a concurrent positive control group and addressed intrinsic variability by conducting multiple ECGs at baseline and during the study. The study was conducted according to the ethical principles of the Declaration of Helsinki, and written informed consent was obtained from each subject during screening.
The treatment regimen was selected to achieve maximal plasma exposure for QTc evaluation while minimizing the risks of excessive or prolonged exposure in healthy volunteers.
The baseline comparison was from day −1 to day 3 at matched time points.
The following hypothesis was tested to confirm that the study had sufficient assay sensitivity: [drawing 3] [drawing 4] where μmoxi(t) was the mean QTcF change from baseline observed following moxifloxacin 400 mg at time point t. If the null hypothesis was rejected, the study had sufficient sensitivity. The Simes method was used for the protection of an experiment-wise 5% type I error [22, 23]. With the Simes method, the original P values corresponding to 0.5, 1, 2, 3, and 4 h post baseline are ordered increasingly, that is, P 1 ≤ P 2 ≤ P 3 ≤ P 4 ≤ P 5. After the Simes correction, the P values were 5P 1, 5P 2/2, 5P 3/3, 5P 4/4, and P 5 respectively. If any of the 5 adjusted P values were <.05, assay sensitivity was claimed. Only the participants who completed all scheduled doses of study medication from day 1 to day 3 and had at least 1 ECG on day −1 (baseline) and at least 1 ECG on day 3 (time-matched day 3 data for the time-matched analysis) were included in the assay sensitivity test.
Electrocardiogram measurements at each time point were calculated as an average of 3 separate ECG extractions or replicates. (Each extraction was the mean of 3 beats.) If fewer than 3 measurements were available, the available samples were averaged (i.e., a minimum of 1 measure was required). For each subject, the time-matched baseline value was subtracted from the QT/QTc intervals to determine the change from baseline in QT/QTc intervals for that subject. The 2 null hypotheses described above were tested in a linear mixed-effect model with a compound symmetry covariance structure. The model included the baseline measure as covariate and treatment, time, and the treatment-by-time interaction as fixed effects, where time was a categorical variable and subject was a random effect.
The time-matched analysis was conducted on the QTcF change from the time-matched baseline as recommended by the ICH E14 guideline. Although modeling change from the time-matched baseline was the primary analysis, the change from the time-averaged baseline was also analyzed using the same model. For the averaged baseline, each triplicate ECG collection was averaged first, and then the averaged baseline was calculated based on all the averaged triplicate ECG and unscheduled ECGs.
as §1

[5] = Plasma pharmacokinetics, noncompartmental analysis; conditions: human, plasma, 75 mg; for Cmax: mean (SD)
Protocol: Blood samples for PK analysis were collected predose and 0.5, 1, 2, 3, 4, 8, 12, and 24 h post dose on days 1 and 3 at the same time as ECG assessments. […] Noncompartmental analysis (WinNonlin™ version 5.2, Pharsight, Sunnyvale, California) was performed to determine the following PK parameters: C max, T max, minimum (trough) plasma concentration over a dosing interval (C min), and AUC calculated using a trapezoidal method. For moxifloxacin, the AUC from time 0 to the last measurable concentration sampling time was calculated (AUC0–tlast).

[6] = midostaurin, 24 h post dose on day 3

Structure (SMILES): CO[C@@H]1[C@H](N(C)C(=O)c2ccccc2)C[C@H]2O[C@]1(C)n1c3ccccc3c3c4c(c5c6ccccc6n2c5c31)C(=O)NC4 [Midostaurin, N-benzoylstaurosporin]
- overall response rate [1]: 69%
- new U-wave abnormalities (healthy volunteers [2]; 12-lead ECG): No new U-wave abnormalities
- new post baseline T-wave abnormalities (healthy volunteers [2]; 12-lead ECG): Three
- effects on heart rate, atrioventricular conduction, cardiac depolarization (PR and QRS interval durations) (healthy volunteers [2]; midostaurin 75 mg twice daily): no effects on heart rate, atrioventricular conduction, or cardiac depolarization
- PR increase ≥25% and resultant PR >200 ms, participants (healthy volunteers [2]; safety set): 0 no. (%)
- QRS increase ≥25% and resultant QRS >100 ms, participants (healthy volunteers [2]; safety set): 0 no. (%)
- QTcB >60 ms, time-matched change from baseline, participants (healthy volunteers [2]; safety set): 0 no. (%)
- QTcF >30 ms, time-matched change from baseline, participants (healthy volunteers [2]; safety set): 0 no. (%)
- QTcF >60 ms, time-matched change from baseline, participants (healthy volunteers [2]; safety set): 0 no. (%)
- QTcI >30 ms, time-matched change from baseline, participants (healthy volunteers [2]; safety set): 0 no. (%)
- QTcI >60 ms, time-matched change from baseline, participants (healthy volunteers [2]; safety set): 0 no. (%)
- RR decrease ≥25% and resultant RR <600 ms, participants (healthy volunteers [2]; safety set): 1 (1.3) no. (%)
- RR increase ≥25% and resultant RR >1,200 ms, participants (healthy volunteers [2]; safety set): 1 (1.3) no. (%)
- QTcF New >450 ms, participants (healthy volunteers [2]; safety set, post baseline): 0 no. (%)
- QTcB New >450 ms, participants (healthy volunteers [2]; safety set, post baseline, text: between 450 and 480 ms): 1 (1.3%) no. (%)
- QTcB >30 ms, time-matched change from baseline, participants (healthy volunteers [2]; safety set): 1 (1.3) no. (%)
- QTcB >30 ms, time-matched change from baseline, participants (healthy volunteers [2]; safety set, listed as midostaurin): 1 (1.3%) no. (%)
- Abdominal pain (healthy volunteers [3]; human, in vivo): 4 (5.1) no. (%)
- Arthralgia (healthy volunteers [3]; human, in vivo): 0 (0.0) no. (%)
- Diarrhea (healthy volunteers [3]; human, in vivo): 25 (31.6) no. (%)
- Discontinued, main cause Adverse event(s) (healthy volunteers [3]; human, in vivo): 19 (23.8) no. (%)
- Dizziness (healthy volunteers [3]; human, in vivo): 0 (0.0) no. (%)
- Dry mouth (healthy volunteers [3]; human, in vivo): 0 (0.0) no. (%)
- Dysmenorrhea (healthy volunteers [3]; human, in vivo): 1 (1.3) no. (%)
- Dyspepsia (healthy volunteers [3]; human, in vivo): 1 (1.3) no. (%)
- Eructation (healthy volunteers [3]; human, in vivo): 3 (3.8) no. (%)
- Flatulence (healthy volunteers [3]; human, in vivo): 3 (3.8) no. (%)
- Flushing (healthy volunteers [3]; human, in vivo): 2 (2.5) no. (%)
- Headache (healthy volunteers [3]; human, in vivo): 5 (6.3) no. (%)
- Hiccups (healthy volunteers [3]; human, in vivo): 2 (2.5) no. (%)
- Hot flushes (healthy volunteers [3]; human, in vivo): 1 (1.3) no. (%)
- Nausea (healthy volunteers [3]; human, in vivo): 30 (38.0) no. (%)
- Pollakiuria (healthy volunteers [3]; human, in vivo): 0 (0.0) no. (%)
- Rash (healthy volunteers [3]; human, in vivo): 0 (0.0) no. (%)
- Salivary hypersecretion (healthy volunteers [3]; human, in vivo): 2 (2.5) no. (%)
- Sexually transmitted disease (healthy volunteers [3]; human, in vivo): 1 (1.3) no. (%)
- Tachycardia (healthy volunteers [3]; human, in vivo): 2 (2.5) no. (%)
- Vomiting (healthy volunteers [3]; human, in vivo): 19 (24.1) no. (%)
- Participants with adverse events (healthy volunteers [3]; human, in vivo, 4 day): 43 (54.4) no. (%)
- discontinuations because of gastrointestinal events of vomiting (healthy volunteers [3]; midostaurin arm, vomiting within 4 h of dosing): 17 n
- Discontinued, main cause Adverse event(s) (healthy volunteers [3]; randomized set): 19 no. (%)
- Discontinued, main cause Death (healthy volunteers [3]; randomized set): 0 (0.0) no. (%)
- QTcF change from time-matched baseline, Difference (Midostaurin – Placebo) (healthy volunteers [4]; 0 h): -2.7 ms
- Upper bound of the one-sided 95% CI of Difference (Midostaurin – Placebo) in QTcF change (healthy volunteers [4]; 0 h): 1.3 ms
- QTcF change from time-matched baseline, Difference (Midostaurin – Placebo) (healthy volunteers [4]; 0.5 h): -1.9 ms
- Upper bound of the one-sided 95% CI of Difference (Midostaurin – Placebo) in QTcF change (healthy volunteers [4]; 0.5 h): 2.1 ms
- QTcF change from time-matched baseline, Difference (Midostaurin – Placebo) (healthy volunteers [4]; 1 h): -3.7 ms
- Upper bound of the one-sided 95% CI of Difference (Midostaurin – Placebo) in QTcF change (healthy volunteers [4]; 1 h): 0.3 ms
- QTcF change from time-matched baseline, Difference (Midostaurin – Placebo) (healthy volunteers [4]; 2 h): -5.1 ms
- Upper bound of the one-sided 95% CI of Difference (Midostaurin – Placebo) in QTcF change (healthy volunteers [4]; 2 h): -1.1 ms
- QTcF change from time-matched baseline, Difference (Midostaurin – Placebo) (healthy volunteers [4]; 3 h): -3.9 ms
- Upper bound of the one-sided 95% CI of Difference (Midostaurin – Placebo) in QTcF change (healthy volunteers [4]; 3 h): 0.1 ms
- QTcF change from time-matched baseline, Difference (Midostaurin – Placebo) (healthy volunteers [4]; 4 h): -3.4 ms
- Upper bound of the one-sided 95% CI of Difference (Midostaurin – Placebo) in QTcF change (healthy volunteers [4]; 4 h): 0.6 ms
- QTcF change from time-matched baseline, Difference (Midostaurin – Placebo) (healthy volunteers [4]; 8 h): -0.7 ms
- Upper bound of the one-sided 95% CI of Difference (Midostaurin – Placebo) in QTcF change (healthy volunteers [4]; 8 h): 3.3 ms
- QTcF change from time-matched baseline, Difference (Midostaurin – Placebo) (healthy volunteers [4]; 12 h): -0.6 ms
- Upper bound of the one-sided 95% CI of Difference (Midostaurin – Placebo) in QTcF change (healthy volunteers [4]; 12 h): 3.4 ms
- QTcF change from time-matched baseline, Difference (Midostaurin – Placebo) (healthy volunteers [4]; 24 h): 0.7 ms
- Upper bound of the one-sided 95% CI of Difference (Midostaurin – Placebo) in QTcF change (healthy volunteers [4]; 24 h): 4.7 ms
- maximum mean QTcF change from time-matched baseline compared with placebo (healthy volunteers [4]; midostaurin 75 mg twice daily days 1-2, once day 3, 24 h post dose on day 3, ECG set): 0.7 ms
- QTcF change on day 3 from time-matched baseline (healthy volunteers [4]; 0 h): -3.2 ms
- QTcF change on day 3 from time-matched baseline (healthy volunteers [4]; 0.5 h after administration): -5.2 ms
- QTcF change on day 3 from time-matched baseline (healthy volunteers [4]; 1 h after administration): -6.3 ms
- QTcF change on day 3 from time-matched baseline (healthy volunteers [4]; 2 h after administration): -6.2 ms
- QTcF change on day 3 from time-matched baseline (healthy volunteers [4]; 3 h after administration): -5.2 ms
- QTcF change on day 3 from time-matched baseline (healthy volunteers [4]; 4 h after administration): -6.4 ms
- QTcF change on day 3 from time-matched baseline (healthy volunteers [4]; 8 h after administration): -1.9 ms
- QTcF change on day 3 from time-matched baseline (healthy volunteers [4]; 12 h after administration): -3.1 ms
- QTcF change on day 3 from time-matched baseline (healthy volunteers [4]; 24 h after administration): -3.9 ms
- highest upper bound of 95% CI, QTcF change from time-averaged baseline compared with placebo (healthy volunteers [4]; [6]): 4.9 ms
- maximum mean QTcF change from time-averaged baseline compared with placebo (healthy volunteers [4]; [6]): 2.5 ms
- Tmax ([5]; oral, time of peak concentrations post dose, midostaurin dosing, days 1 and 3): 1 h
- Cmax ([5]; po, Day 1 (single dose), midostaurin 75 mg oral): 2140 ng/mL
- Cmax ([5]; po, Day 3 (twice daily), midostaurin 75 mg oral): 2270 ng/mL
- Tmax ([5]; po, Tmax, median (range), Day 1 (single dose), midostaurin 75 mg oral): 1 h
- Tmax ([5]; po, Tmax, median (range), Day 3 (twice daily), midostaurin 75 mg oral): 1.1 h
